Measured values from EP0965346A2, “Use of acetylated mannan derivatives for treating chronic respiratory diseases” (CARRINGTON LABORATORIES, INC., priority 1991, dated 1993).

Key:
[1] = system: HIV; assay: Phase II double-blind study of acemannan alone and with AZT; format: in vivo; conditions: ARC patients, 24 weeks
Method: Forty-seven HIV+ patients (23 asymptomatic patients, 24 ARC patients) participated in a double-blind randomized phase II study of acemannan. The protocol was approved by the relevant ethical committees of the Hospital St. Pierre in Brussels, Belgium. In order to evaluate safety and tolerance, with or without concomitant AZT therapy, acemannan was administered during 24 weeks at a daily dose of 1000 mg (2 capsules of 125 mg, 4 times daily). The 23 asymptomatic patients were blindly allocated to receive either acemannan (11 patients, group 1) or placebo (12 patients, group 2). Of the 24 ARC patients who received 1000 mg AZT daily during the study, 12 patients (group 3) also received acemannan 1000 mg (2 capsules of 125 mg, 4 times daily) and 12 patients (group 4) also received placebo.

[2] = system: HTLV-IIIB strain of HIV-1; assay: Viability (MTT) of HIV-1-infected MT-2 cells, AZT-acemannan checkerboard; format: cell-based
Method: Virus Strains - The HTLV-IIIB strain of HIV-1 was obtained from Dr. R. Gallo, NIH, Bethesda, Maryland. Viral stocks were prepared by propagating the virus in H9 lymphoid cells. A stock preparation of the virus was stored at -80°C. The 50% tissue culture infective dose (TCID50)/ml of cell-free virus pool stock was determined by end-point titration using MT-2 cells. Multiplicity of infection (MOI) was determined by the method of Reed and Muench.
Cell Lines - MT-2 cells were propagated in RPMI-1640 supplemented with 2 mM L-glutamine and 15% (v/v) fetal bovine serum. MT-2 cells naturally express CD4 on their surface and are thus good target cells for HIV-1 infection. In addition, they rapidly undergo cytolysis at low levels of virus replication.
Primary testing of antiviral activity - MT-2 cells were first treated with polybrene (2 mg/ml) for 30 min and then infected with HIV at a MOI of 0.03. After virus absorption, the cells were pelleted and resuspended in complete medium. […] Parallel assays were performed in triplicate, and drug cytotoxicity was measured at parallel concentrations in duplicate. […] On day 7 post-infection, cell viability was measured by the addition of MTT (450 µg/ml) to the test plates. […] Plates were read at a wavelength of 570 nm on a Vmax plate reader (Molecular Devices, Inc.). The percent change in cell viability was calculated using the following formula: % change in cell viability =((TI-TO)-(OI-TO))/((OO-TO)-(OI-TO))x 100 [formula] where: • TI is the optical density (OD) in treated, infected cells, • TO is the OD in treated, uninfected cells, • OI is the OD in untreated, infected cells, and • OO is the OD in untreated, uninfected cells.
Antiviral activity of acemannan-AZT combinations - Antiviral activity of acemannan in combination with AZT at various concentrations was evaluated using the microtiter infection assay described above. […] Combinations were evaluated in duplicate, and treated uninfected controls were used to determine drug cytotoxicity. Each compound was also evaluated alone at non-cytotoxic concentrations. […]

Q: How did the “patients who developed AIDS” value ([1]; 12 per group) turn out when `Cc1cn([C@H]2C[C@H](N=[N+]=[N-])[C@@H](CO)O2)c(=O)[nH]c1=O` [AZT, Zidovudine] was run?
A: 2 patients

Q: What about the “mean Karnofsky score at exit” value ([1]; AZT 1000 mg daily, acemannan 1000 mg daily, entry 84 (combination), 81 (AZT alone)) of the same compound?
A: 83

Q: What about the “mean CD4 at exit” value ([1]; entry 263/mm3 (combination), 145/mm3 (AZT alone)) of the same compound?
A: 252 /mm3

Q: What about the protection ([2]; 0.01 µg/ml AZT alone) of the same compound?
A: neither of which was protective on its own

Q: What about the protection ([2]; 0.32 µg/ml AZT alone) of the same compound?
A: 65%

Q: What about the maximum protection ([2]; AZT alone, 0.03 to 0.32 µg/ml, MOI 0.03) of the same compound?
A: 60-67%
